Patent publication US11433136B2, “Polyacetal polymers, conjugates, particles and uses thereof” (THE GENERAL HOSPITAL CORPORATION, priority 2015, dated 2022)

System: PAN02 tumors
Assay: Orthotopic PAN02 pancreatic (PDAC) tumors in lean and obese mice
Type: in vivo, mice (C57BL/6)
Method: Diet started at six weeks of age, continued for ten weeks (C57BL/6 and FVB), at which time tumors were implanted, and then continued until the end of experiments. In the spontaneous tumor models, diets were administered until tumor collection. Mice genetically deficient for leptin (ob/ob) on a standard chow for seven weeks gained weight compared to age matched WT mice (n=8-10/group for C57Bl/6, FVB and ob/ob, 4-10/group for KPC, 7-21/group for iKRAS). Left bars represent mice fed a low-fat diet, right bars represent mice fed a high fat diet for all groups except C57/B6 on the far right of the graph, in which the right bar represents the ob/ob mice. […] PAN02 and AK4.4 syngeneic tumors were orthotopically implanted in C57BL/6 and FVB mice respectively at ten weeks of diet (lean diet, left bars; and obese diet or ob/ob mice, right bars); ob/ob mice were implanted with PAN02 tumors at seven weeks of age. Tumors were collected 21 days later. Obese animals presented with higher tumor weights than lean counterparts in all models (n=8-10/group). FIG. 7D is representative images of mesenteric peritoneal dissemination in lean and obese mice implanted with PAN02 tumors. Mesenteries collected at the same time as tumors in FIG. 7C. FIG. 7E is a graph showing the quantification of mesenteric peritoneal metastasis in the PAN02 model. FIG. 7F is a graph showing the quantification of retro-peritoneal metastasis in the AK4.4 model. Data are shown as mean±standard error of the mean (SEM). P values were determined by the Student t-test. *, P<0.05; **, P<0.01; ***, P<0.001.
FIG. 9A is representative pictures of CD31(+) vessels and lectin in PAN02 tumors. Scale bars: 200 μm. FIG. 9B is a graph showing the quantification of the total (CD31+) and lectin-positive (CD31/lectin+) vessel area in PAN02 tumors. Obese mice (right bars) presented with decreased perfusion (n=3-6 tumors/group) compared to lean mice (left bars). […] Obese mice presented with increased hypoxia in tumors. […] 5-FU quantified via high performance liquid chromatography (HPLC). […] PAN02 tumors were orthotopically implanted at ten weeks of diet, treatments were initiated at day seven post-implantation and tumors resected at day 19. […] Data are shown as mean±SEM. P values were determined by the Student t-test unless otherwise stated. *, P<0.05; **, P<0.01
Expression of genes associated with AT-1 pathway activation and fibrosis/desmoplasia is increased in PAN02 (FIG. 10A) and AK4.4 (FIG. 10B) tumors from obese mice (right bars) in comparison to lean mice (left bars). […] Data normalized to lean group. 3-4 samples per group pooled in one single PCR array fibrosis gene set plate. […] Of note, similar to αSMA, the changes of AT1, as well as other desmoplasia related markers, were relatively mild in the lean setting. […] Data are shown as mean±SEM with the exception of FIGS. 10A and 10B. P values were determined by the Student t-test unless otherwise stated. *, P<0.05; **, P<0.01, ***p<0.001.
Obesity promoted infiltration of myeloid Gr-1(+)F4/80(−) cell population in PAN02 tumors in obese mice. FIG. 11B is a quantification normalized by total viable cells (i) or total CD45 leucocytes (ii) (n=4-6 tumors/group). FIG. 11C is representative FACS scatter plots of CD45(+)CD11b(+)Ly6G(+) tumor associated neutrophils (TANs), CD8(+) cytotoxic lymphocytes and CD4(+)CD25(+) regulatory T cells in PAN02 tumors in lean and obese setting. […] Obese promoted an increase in TANs and a decrease in CD8 cells in PAN02 tumors. A strong tendency for increased Tregs was also observed. […] Scale bars: 1 mm (whole tumors) and 100 μm (caption). […] (n=4-6 tumors/group). For bar graphs in FIGS. 11A, 11B, 11D, and 11E, left bars represent lean mice, and right bars represent obese mice. For the bar graph in FIG. 11J, left bars represent obese mice, and right bars represent obese mice with TAN depletion. Data are shown as mean±SEM. […]

chemotherapy delivery to tumors (obese but not lean mice)	delivery of chemotherapy to tumors, 5-FU quantified via HPLC (obese vs lean mice)	SMILES	response to chemotherapy with AT1 blockade (losartan with 5-FU, lean and obese)	tumor αSMA protein expression (obese and lean)	tumor perfusion (obese but not lean mice)	cytokine expression in tumors (multiplex protein) (obese mice)	response to chemotherapy (tumor growth) (obese vs lean, treatment from day 7, tumors resected day 19)
increase chemotherapy delivery	–	CCCCc1nc(Cl)c(CO)n1Cc1ccc(-c2ccccc2-c2nn[nH]n2)cc1 [losartan]	improved response to chemotherapy in obese, but not in lean animals	tendency for reduced tumor αSMA protein expression in obese but not lean setting	tended to improve perfusion	reduced the expression of multiple cytokines including IL-1	–
–	decreased delivery	O=c1[nH]cc(F)c(=O)[nH]1 [Example 5-FU, 5-fluorouracil]	–	–	–	–	less effective in preventing PAN02 tumor growth in obese animals than in lean
